# Literature values as cited in patent publication US20150272920A1, “METHOD FOR TREATING OBESITY WITH ANTI-OBESITY FORMULATIONS AND OMEGA 3 FATTY ACIDS FOR THE REDUCTION OF BODY WEIGHT IN CARDIOVASCULAR DISEASE PATIENTS (CVD) AND DIABETICS” (PIVOTAL THERAPEUTICS INC., priority 2014, published 2015).
# Molecular target: CB1R (Homo sapiens, UniProt P21554)
# Conditions: in vivo
# Sequence of CB1R (P21554 whole entry): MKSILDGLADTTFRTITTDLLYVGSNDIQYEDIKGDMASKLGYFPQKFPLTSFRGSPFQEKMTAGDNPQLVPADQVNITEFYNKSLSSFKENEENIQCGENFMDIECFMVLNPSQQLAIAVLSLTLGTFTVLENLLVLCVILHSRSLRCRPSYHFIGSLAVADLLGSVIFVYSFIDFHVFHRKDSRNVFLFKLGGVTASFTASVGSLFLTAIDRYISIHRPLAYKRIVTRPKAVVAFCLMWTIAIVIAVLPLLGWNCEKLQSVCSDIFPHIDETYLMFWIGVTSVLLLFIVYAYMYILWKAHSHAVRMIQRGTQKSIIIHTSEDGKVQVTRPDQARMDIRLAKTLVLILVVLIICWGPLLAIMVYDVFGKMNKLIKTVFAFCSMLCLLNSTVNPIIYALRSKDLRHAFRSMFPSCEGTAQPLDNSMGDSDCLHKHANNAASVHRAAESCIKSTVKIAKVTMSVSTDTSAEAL
structure (smiles),measurement,value
"CCNC1(C(N)=O)CCN(c2ncnc3c2nc(-c2ccccc2Cl)n3-c2ccc(Cl)cc2)CC1.Cl [CP-945,598]",Reason for failure of phase III clinical trials (adverse reactions),"psychiatric adverse reactions, including severe depression and anxiety"
